Results as given in patent US7488749B2, “Therapy of diseases of the eye, the inner ear and the central nervous system” (Cevec Pharmaceuticals GmbH, priority 2002, dated 2009).
Like-named read-outs stand apart in the source and are kept apart here.

Tests used:
[1] = system: Human RPE cells; experiment: Formation of lipofuscin (auto-fluorescence) in RPE cells with tyrosinase inhibited by PTU; format: cell-based
Method: Human retinal pigment epithelium cells were isolated 2 hours post mortem from eyes of organ donors by incubation in 0.2% trypsin solution with 0.5 mM EDTA (if not indicated differently the reagents are from Sigma, Deisenhofen, Germany) for 30 minutes. The cells were centrifuged and cultivated in 24-well-plates (Nunc, Mainz, Germany) in Dulbeccos modified Eagle Medium with 15% foetal calf serum, 50 μg/ml gentamycin and 2.5 μg/ml amphotericin. The cells remain in primary culture (P0) for 3 weeks until confluence. Subsequent passaging was performed by trypsination of the cells in the respective time intervals. For the feeding with membranes of visual cells, cells originating from 3 different donors (passage 3, 6 and 16) were used. […]
The cells in group 1+2 were overlaid with about 2×10^6 outer segments of rods. […] After this, the cells were looked at under the fluorescence microscope (Axiovert, Zeiss, Oberkochem, Germany) with filters specific for the auto-fluorescence of the lipofuscein (excitation 360 nm, emission 540 nm, Feuerbacher Analysentechnik, Tübingen, Germany) and were photographed with a digital camera and saved using Openlab Software (Improvision, UK).

[2] = system: human amelanotic retinal pigment epithelium cells ARPE-19; experiment: Survival of retinal pigment epithelium cells after lethal UVA radiation; format: cell-based; conditions: without melanin
Method: 30.000 human amelanotic retinal pigment epithelium cells ARPE-19 (American Type culture Collections, Manassas, Va., USA) were cultivated in a mixture of DMEM and F12 Medium (PAA Laboratories, Linz, Austria) with 10% foetal calf serum, gentamycin and amphotericin and were incubated with 1 mg/ml melanin from squids (Sepia officinalis, Sigma). After 4 hours, the non-phagocytosed melanin was thoroughly washed away. After 24 hours the artificially pigmented cells were incubated with 100 or 200 μmol ZnCl2 for 2 hours. Three days later, the cells were irradiated using a HRL, 125 W, lamp (Radium, Germany) for 1 hour. The UVA light portion was 18 mW/cm^2 at the surface of the cell culture liquid and was measured using a RM-12 UV radiometer (Dr. Gröbel, UV Elektronik, Ettlingen, Germany). Cells without melanin and zinc treatment with and without irradiation served as controls. After 2 further days, the number of surviving cells was counted in a Thoma-chamber.
In the following table the mean values of surviving cells from 3 independent experiments are indicated. The number of surviving cells after irradiation without melanin and/or zinc treatment was statistically compared with the number of surviving cells with treatment. That is were the p-value results from. […] The number of surviving cells war increased by the factor 7.4 in comparison to untreated cells.

[3] = system: mRNA for catalase; experiment: Catalase mRNA expression in the chorioidea-RPE-complex after zinc injection (real time RT-PCR); format: in vivo, rat
Method: After 6 and 24 hours the chorioidea-RPE-complex was isolated from the retina and sclera. The amount of catalase mRNA expression in the chorioidea-RPE-complex was quantified by real time RT-PCR with the SYBR Green I reaction system using an iCycler (Bio-Rad Laboratories, Hercules, Calif.). PCR primer (catalase: upper primer: TAGCCAGAAGAGAAACCCACAAACT (SEQ ID NO:1) and lower primer: TCCCTCGGTCGCTGAACAAGA (SEQ ID NO:2); GAPDH: upper primer: AACTTTGTGAAGCTCATTTCCTGGTAT (SEQ ID NO:3) and lower primer: CCT TGC TGG GCT GGG TGG T (SEQ ID NO:4)) were selected using the primer analysis software OLIGO®4.1 (National Biosciences, Plymoth, Minn., USA) that the primer specific melting temperature was between 58 and 60° C. […] The quantification data were calculated using the iCycler iQ System Software (Bio-Rad Laboratories, Hercules, Calif.). After subtraction of the PCR base line by the software, the linear logarithmic portion of the fluorescence was plotted versus the number of cycles to determine the cycle number (threshold cycle, CT) at which the threshold fluorescence for catalase and GAPDH as a reference was exceeded. Since the amplification effectivity of target and reference gene was approximately the same (delta CT<0.15) the comparative CT method was used for the quantification of the catalase in comparison GAPDH.

[4] = for zinc concentration of the chorioidea-RPE-complex: 24 hours after 40 mg/kg ZnCl2 intraperitoneally
Method: Two albino (Wistar) rats and two pigmented (Long Evans) rats were injected intraperitoneally with 40 mg/kg body weight ZnCl2. After 24 hours the chorioidea-RPE-complex was isolated from retina and sclera. Respective samples from untreated animals served as controls. The samples were weight directly into leak-proof PFA vessels (Savillex) (Microbalance Sartorius MC21S) and cracked by using ultrasound homogenisation for 24 hours at 30° C. with HNO3—H2O2 (suprapur grade reagents; Merck). After careful evaporation, the remains were solved in 2% HNO3 for 5 hours at 50° C. This solution was subsequently transferred to a 10 ml volumetric flask. The final clear solution contained 10 ng rhodamin (Rh)/ml and was refilled with 2% HNO3. The detection of zinc was performed by inductively coupled plasma mass spectrometry (ICP-MS, ELAN 6000 Perkin-Elmer/Sciex) and by using Rh as internal standard and a calibration with chemical reagents having the highest purity grade.

Compound | auto-fluorescence specific for lipofuscin ([1]; group 1: 1 mM PTU, fed with membranes of visual cells on 15 successive days) | auto-fluorescence specific for lipofuscin ([1]; group 3: 1 mM PTU, not fed) | number of surviving cells ([2]; with irradiation (UVA 18 mW/cm^2, 1 hour), 100 μmol Zn) | number of surviving cells ([2]; with irradiation, 200 μmol Zn) | amount of mRNA for catalase ([3]; 24 hours after 40 mg/kg ZnCl2 i.p.) | increase of mRNA for catalase (factor) ([3]; six hours after 40 mg/kg ZnCl2 i.p., albino and pigmented rats compared) | final zinc concentration in pigmented rats relative to treated albinos (times higher) ([4]; after injection of zinc, 24 hours) | zinc concentration of the chorioidea-RPE-complex ([4]; albino (Wistar) rats) [µg/g] | zinc concentration of the chorioidea-RPE-complex ([4]; pigmented (Long Evans) rats) [µg/g] | increase of zinc concentration (factor) versus untreated ([4]; pigmented rats, 24 hours after injection of zinc)
NC(=S)Nc1ccccc1 [PTU, phenylthiourea] | intensive, golden auto-fluorescence specific for lipofuscin | no auto-fluorescence | – | – | – | – | – | – | – | –
[Cl-].[Cl-].[Zn+2] [zinc, ZnCl2] | – | – | 33333 ± 11547 | 41666 ± 16072 | again as high as without zinc injection | 12 | 19 | 6.5 | 125 | 1.6
